Reference: patent US20030157176A1, “Antimicrobially treated material and methods of preventing coloring thereof” (priority 2001, published 2003)

Experiment: Silver ion concentration ranges in the water system
Conditions: dissociated in water system
Source text: A basic idea of the present invention for preventing coloring of silver zeolite is to make an purposeful use of the concentration rages of silver ions dissociated from silver zeolite in water system, i.e., a concentration range A which is effective for antimicrobial action and a concentration range B which is responsible for coloring.
Namely, the concentration range A which is effective for antimicrobial action is more than 1 ppm that is the antimicrobially effective concentration of silver ions while the concentration range B which is responsible for coloring is 40 ppm or more, so that a concentration range C for silver ions dissociated in the water system, which is effective for antimicrobial action without causing coloring, exists between 1 ppm and 40 ppm (preferably between 5 ppm and 30 ppm).
The concentration range of silver ions dissociated from 1000 ppm silver zeolite in the water system varies from 40 ppm to 600 ppm. This variation is probably due to a decrease in the silver ion concentration caused by generation of silver oxide or adsorption of silver ions in the water system, or is under the influence of the degree of dissociation of silver ions by metal salts, surfactants, and temperature. […]

In the case of silver ions, the “antimicrobially effective concentration of silver ions (range A)” value is reported as “more than 1 ppm” and the “silver ion concentration responsible for coloring (range B)” value is reported as ≥ 40 ppm.
